In PubChem BioAssay (NCI):
Several values for one entry are separate records, joined by “and”; a condition that tells them apart may be missing. Equal entries are not always repeated.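 How tested: cells in 96-well plates exposed to compound for 48 hours at five concentrations. GI50 is the concentration that inhibits growth by half. The concentration for full growth arrest is given as TGI.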

Legend:
Assay in all cases: growth of human tumour cells (NCI), 48 h
HCT-116 colon = test system: HCT-116 colon
OVCAR-3 ovarian = test system: OVCAR-3 ovarian
OVCAR-4 ovarian = test system: OVCAR-4 ovarian
SK-MEL-28 melanoma = test system: SK-MEL-28 melanoma
TK-10 renal = test system: TK-10 renal
UACC-257 melanoma = test system: UACC-257 melanoma
SNB-75 CNS = test system: SNB-75 CNS
HS 578T breast = test system: HS 578T breast
MDA-MB-231 breast = test system: MDA-MB-231 breast
MDA-MB-435 = test system: MDA-MB-435

| Compound | TGI (HCT-116 colon) [µM] | TGI (OVCAR-3 ovarian) [µM] | TGI (OVCAR-4 ovarian) | TGI (SK-MEL-28 melanoma) | TGI (TK-10 renal) [µM] | TGI (UACC-257 melanoma) [µM] | TGI (SNB-75 CNS) [µM] | GI50 (HCT-116 colon) [µM] | GI50 (OVCAR-4 ovarian) [µM] | GI50 (SK-MEL-28 melanoma) | GI50 (SNB-75 CNS) [µM] | GI50 (UACC-257 melanoma) [µM] | GI50 (TK-10 renal) [µM] | TGI (HS 578T breast) [µM] | TGI (MDA-MB-231 breast) [µM] | TGI (MDA-MB-435) [µM] | GI50 (HS 578T breast) [µM] | GI50 (MDA-MB-231 breast) [µM] | GI50 (OVCAR-3 ovarian) [µM] |
| --- | --- | --- | --- | --- | --- | --- | --- | --- | --- | --- | --- | --- | --- | --- | --- | --- | --- | --- | --- |
| O=C(OC[C@H]1O[C@@H](OC(=O)c2cc(O)c(O)c(O)c2)[C@H](OC(=O)c2cc(O)c(O)c(O)c2)[C@@H](OC(=O)c2cc(O)c(O)c(O)c2)[C@@H]1OC(=O)c1cc(O)c(O)c(O)c1)c1cc(O)c(O)c(O)c1 | 16.8 | 17.7 | 41.1 µM | 56.7 µM | 66 | 65 | – | – | – | – | – | – | – | – | – | – | – | – | – |
| O=c1[nH]c(=O)n(C2OC3COC2C3O)cc1F (stereo not given) | – | > 100 | > 100 µM | > 100 µM | > 100 | > 100 | > 100 | – | – | – | – | – | – | – | – | – | – | – | – |
| C=C1C(=O)OC2/C=C(\C=O)CC/C=C(\C)C(O)C[C@@H]12 (stereo not given in full) | 3.46 | 14.5 | 27.5 µM | 15.7 µM | 24.7 | 18 | 29 | – | – | – | – | – | – | – | – | – | – | – | – |
| O=C([CH-]C(=O)C(F)(F)F)c1ccccc1.O=C([CH-]C(=O)C(F)(F)F)c1ccccc1.O=C([CH-]C(=O)C(F)(F)F)c1ccccc1.O=C([CH-]C(=O)C(F)(F)F)c1ccccc1.[Eu+3].c1ccncc1 | 71 | – | > 100 µM | > 100 µM | – | 55.2 | > 100 | 7.53 | 7.62 | 14.3 µM | 6.71 | 11.9 | – | – | – | – | – | – | – |
| COc1ccc(/C=C2\C(=O)N(C(=O)Cc3ccccc3)N=C2C)cc1OC | > 100 | > 100 | > 100 µM | > 100 µM | > 100 | > 100 | > 100 | – | – | – | – | – | – | – | – | – | – | – | – |
| N.N.N.N.N.N.O=N[O-].[Br-].[Co+3].[Co+3].[OH3+].[OH3+] | – | – | – | > 100 µM | > 100 | > 100 | > 100 | – | – | > 100 µM | > 100 | > 100 | > 100 | – | – | – | – | – | – |
| c1cc(CNC2C3CCC(C3)C2c2c[nH]c3ccccc23)cc(CNC2C3CCC(C3)C2c2c[nH]c3ccccc23)c1 (stereo not given) | – | – | 3.24 µM and 3.34 µM | 2.3 µM and 1.51 µM | 3.39 | 3.82 | 1.21 | – | – | 1.01 µM and 0.343 µM | – | 2 | – | 3.32 | 2.81 | – | – | – | – |
| COC(=O)c1c(-c2ccccc2)sc(-c2cccc3ccccc23)c1C(=O)OC | > 100 | > 100 | > 100 µM | > 100 µM | > 100 | > 100 | > 100 | – | – | – | – | – | – | – | – | – | – | – | – |
| Cc1cc2c(=O)c3ccccc3[nH]c2c(C(=O)O)c1C | > 100 | > 100 | > 100 µM | > 100 µM | – | > 100 | > 100 | – | – | – | – | – | – | – | – | – | – | – | – |
| CCOC(=O)COS(=O)(=O)C(F)(F)F | > 100 | > 100 | > 100 µM | > 100 µM | > 100 | > 100 | > 100 | – | – | – | – | – | – | – | – | – | – | – | – |
| C=C=C(C(=O)OC)S(=O)c1ccc([N+](=O)[O-])cc1[N+](=O)[O-] (stereo not given) | 50.3 | 63.1 | 63.6 µM | > 70 µM | > 85.7 | > 79.9 | > 69.7 | – | – | – | – | – | – | – | – | – | – | – | – |
| COc1cc(Br)c(C=Nc2cccc3ccc(OS(=O)(=O)c4cccc([N+](=O)[O-])c4)cc23)cc1OC | > 100 | > 100 | > 100 µM | > 100 µM | – | > 100 | – | – | – | – | – | – | – | – | – | – | – | – | – |
| Nc1nc(CCC(=O)Nc2cccc(C(F)(F)F)c2)cc(-c2ccc3ccccc3c2)n1 | > 100 | > 100 | > 100 µM | > 100 µM | > 100 | > 100 | > 100 | – | – | – | – | – | – | – | – | – | – | – | – |
| COC1CC(OC(=O)c2ccccc2)C(OC(=O)c2ccccc2)C(C)O1 (stereo not given) | > 100 | > 100 | – | > 100 µM | > 100 | > 100 | – | – | – | – | – | – | – | > 100 | > 100 | > 100 | – | – | – |
| S=c1nc(-c2cccnc2)[nH][nH]1 | > 100 | – | > 1 µM | > 100 µM | > 100 | > 100 | > 100 | – | – | – | – | – | – | – | – | – | – | – | – |
| C1=CC=C2NCCOCCNC3=CC=CC=CC3=NCCOCCN=C2C=C1 | > 100 | > 100 | > 100 µM | > 100 µM | > 100 | 44.6 | > 100 | – | – | – | – | – | – | – | – | – | – | – | – |
| COc1ccc(CN2c3ccccc3CCc3ccccc32)cc1F | > 100 | 0.785 | > 100 µM | > 100 µM | > 100 | > 100 | > 100 | 0.413 | 0.868 | 0.82 µM | 0.277 | > 100 | 0.611 | > 100 | 79.7 | – | 0.487 | 1.35 | 0.285 |
| CCc1c(C)c(C#N)c(=S)n(C2OC(CO)C(O)C(O)C2O)c1C (stereo not given) | > 100 | > 100 | > 100 µM | > 100 µM | > 100 | > 100 | > 100 | – | – | – | – | – | – | – | > 100 | > 100 | – | – | – |
